Values of other authors, collected in patent US20240398763A1, “ORAL DOSAGE FORM CONTAINING ONCOLOGICAL ACTIVE INGREDIENT” (OWP Pharmaceuticals, Inc., priority 2023, published 2024).
≈ marks a conversion by molar mass, not a printed value. Where a name gives a salt, the structure may show the parent alone. Read-outs that look alike come from different tables or passages of the source.

[1] = in water / aqueous media, in words

SMILES	Solubility [1]	also measured
C=CC(=O)Nc1cc(Nc2nccc(-c3cn(C)c4ccccc34)n2)c(OC)cc1N(C)CCN(C)C [osimertinib]	insoluble in water	
O=P1(N(CCCl)CCCl)NCCCO1 (stereo not shown) [cyclophosphamide]	water soluble	
CS(=O)(=O)OCCCCOS(C)(=O)=O [busulfan]	insoluble in water	
O=C(Nc1ccc(OC(F)(F)Cl)cc1)c1cnc(N2CC[C@@H](O)C2)c(-c2ccn[nH]2)c1 [asciminib]	insoluble in water	
CS(=O)(=O)c1ccc(C(=O)Nc2ccc(Cl)c(-c3ccccn3)c2)c(Cl)c1 [vismodegib]		Solubility (pH 1): 0.99 mg/mL at pH 1; Solubility (pH 7): 0.1 μg/mL at pH 7 and
N=C1CCCN1Cc1[nH]c(=O)[nH]c(=O)c1Cl [tipiracil hydrochloride]	water soluble; water	
CO[C@]1(C(=O)N[C@@H](C)c2ccc(-n3cc(F)cn3)nc2)CC[C@H](c2nc(C)cc(Nc3cc(C)[nH]n3)n2)CC1 [pralsetinib]		Solubility (aqueous media, pH 1.99): 0.880 mg/mL to
O=NN(CCCl)C(=O)NC1CCCCC1 [lomustine]	insoluble in water	
CC(=O)O[C@]1(C(C)=O)CC[C@H]2[C@@H]3C[C@H](C)C4=CC(=O)CC[C@]4(C)[C@H]3CC[C@@]21C [medroxyprogesterone acetate]	insoluble in water	
CN(C)CCOc1ccc(/C(=C(/CCCl)c2ccccc2)c2ccccc2)cc1 [toremifene citrate]		Water solubility (at 37° C.): 37 °C is 0.63 mg/mL
C=CC(=O)Nc1cc(Nc2ncc(C(=O)OC(C)C)c(-c3cn(C)c4ccccc34)n2)c(OC)cc1N(C)CCN(C)C [mobocertinib]		Solubility (pH 1.0 solution at 37° C.): solubility of 152 mg/mL
CO[C@H]1C[C@@H]2CC[C@@H](C)[C@@](O)(O2)C(=O)C(=O)N2CCCC[C@H]2C(=O)O[C@H]([C@H](C)C[C@@H]2CC[C@@H](OCCO)[C@H](OC)C2)CC(=O)[C@H](C)/C=C(\C)[C@@H](O)[C@@H](OC)C(=O)[C@H](C)C[C@H](C)/C=C/C=C/C=C/1C [everolimus]	insoluble in water	
Nc1ncn([C@H]2C[C@H](O)[C@@H](CO)O2)c(=O)n1 [decitabine]		Solubility (condition not given): 22.5 mg/mL; unknown
Cn1nnc2c(C(N)=O)ncn2c1=O [temozolomide]		Solubility (condition not given): 7 mg/mL (≈ 36100 µM)
CNC(=O)c1ccccc1Sc1ccc2c(/C=C/c3ccccn3)n[nH]c2c1 [axitinib]		Solubility (aqueous media over the range pH 1.1 to pH 7.8): excess of 0.2 μg/mL
CS(=O)(=O)c1ccc(Oc2cc(F)cc(C#N)c2)c2c1[C@H](O)[C@H](F)[C@@H]2F [belzutifan]	insoluble in water	
CCN1CCN(Cc2ccc(Nc3ncc(F)c(-c4cc(F)c5nc(C)n(C(C)C)c5c4)n3)nc2)CC1 [abemaciclib]	insoluble in water	

SMILES	Solubility [1]	also measured
COc1cc2nccc(Oc3ccc(NC(=O)NC4CC4)c(Cl)c3)c2cc1C(N)=O [lenvatinib]	slightly soluble in water	
Cc1cnc(Nc2ccc(OCCN3CCCC3)cc2)nc1Nc1cccc(S(=O)(=O)NC(C)(C)C)c1 [fedratinib]		Solubility (pH 1): condition (>100 mg/mL; Solubility (pH 7.4): (4 mcg/mL at pH 7.4)
CCOc1cc2ncc(C#N)c(Nc3ccc(OCc4ccccn4)c(Cl)c3)c2cc1NC(=O)/C=C/CN(C)C [neratinib]		Solubility (approximate pH 5.0 and above): (0.08 mg/mL or less); Solubility (pH 1.2): 1.2 (32.90 mg/mL) and
CS(=O)(=O)CCNCc1ccc(-c2ccc3ncnc(Nc4ccc(OCc5cccc(F)c5)c(Cl)c4)c3c2)o1 [lapatinib]		Solubility (condition not given): 0.007 mg/mL (≈ 12 µM)
Cn1cnc2c(F)c(Nc3ccc(Br)cc3F)c(C(=O)NOCCO)cc21 [binimetinib]	Slightly soluble at pH 1,	
CC1=C(/C=C/C(C)=C/C=C/C(C)=C/C(=O)O)C(C)(C)CCC1 [tretinoin]	insoluble in water	
CCN(CC)CCNC(=O)c1c(C)[nH]c(/C=C2\C(=O)Nc3ccc(F)cc32)c1C [sunitinib malate]		Solubility (aqueous media over the range pH 1.2 to pH 6.8): is in excess of 25 mg/mL
O=C(c1cc(Cc2n[nH]c(=O)c3ccccc23)ccc1F)N1CCN(C(=O)C2CC2)CC1 [olaparib]	low solubility	
Nc1cccc2c1CN(C1CCC(=O)NC1=O)C2=O (stereo not shown) [lenalidomide]	insoluble in water	
CN1CCN(c2ccc(C(=O)Nc3n[nH]c4ccc(Cc5cc(F)cc(F)c5)cc34)c(NC3CCOCC3)c2)CC1 [entrectinib]	insoluble in water	
C=C(F)C(=O)N1CCN(c2nc(OC[C@@H]3CCCN3C)nc3c2CCN(c2cccc4cccc(Cl)c24)C3)C[C@@H]1CC#N [adagrasib]		Solubility (aqueous media, pH 7.4): to <0.010 mg/mL; Solubility (pH 1.2): from >262 mg/mL
CO[C@@H]1[C@H](N(C)C(=O)c2ccccc2)C[C@H]2O[C@]1(C)n1c3ccccc3c3c4c(c5c6ccccc6n2c5c31)C(=O)NC4 [midostaurin]	insoluble in water	
Nc1cccc2c1C(=O)N(C1CCC(=O)NC1=O)C2=O (stereo not shown) [pomalidomide]		Solubility (all pH solutions): ~0.01 mg/mL (≈ 36.6 µM)
N[C@@H](Cc1cc(I)c(Oc2cc(I)c(O)c(I)c2)c(I)c1)C(=O)O [levothyroxine sodium]	insoluble in water	
C=CC(=O)N1CCN(c2nc(=O)n(-c3c(C)ccnc3C(C)C)c3nc(-c4c(O)cccc4F)c(F)cc23)[C@@H](C)C1 [sotorasib]		Solubility (aqueous media, pH 6.8): 0.03 mg/mL (≈ 53.5 µM)
O=c1[nH]c(=O)n([C@H]2C[C@H](O)[C@@H](CO)O2)cc1C(F)(F)F [trifluridine]	water soluble; water	

Continued, in another order:

Solubility [1]	SMILES	also measured
water soluble	Nc1ncn([C@@H]2O[C@H](CO)[C@@H](O)[C@H]2O)c(=O)n1 [azacitidine]	
slightly soluble at pH 1,	COC(=O)N[C@@H](C)CNc1nccc(-c2cn(C(C)C)nc2-c2cc(Cl)cc(NS(C)(=O)=O)c2F)n1 [encorafenib]	
insoluble in water	Sc1ncnc2nc[nH]c12 [mercaptopurine]	
practically insoluble	CC(C)(O)CNc1nc(Nc2ccnc(C(F)(F)F)c2)nc(-c2cccc(C(F)(F)F)n2)n1 [enasidenib]	Solubility (aqueous solutions across physiological pH range (pH 1.2 and 7.4)): (solubility ≤74 mcg/mL)
insoluble in water	CN(Cc1cnc2nc(N)nc(N)c2n1)c1ccc(C(=O)N[C@@H](CCC(=O)O)C(=O)O)cc1 [methotrexate]	
insoluble in water	Cn1ncnc1[C@H]1c2n[nH]c(=O)c3cc(F)cc(c23)N[C@@H]1c1ccc(F)cc1 [talazoparib tosylate]	
insoluble in water	Cc1nc(NC(=O)N2CCC[C@H]2C(N)=O)sc1-c1ccnc(C(C)(C)C(F)(F)F)c1 [alpelisib]	
insoluble in water	Cc1ccc(Nc2nccc(N(C)c3ccc4c(C)n(C)nc4c3)n2)cc1S(N)(=O)=O [pazopanib]	
insoluble in water	COc1cc2nccc(Oc3ccc(NC(=O)Nc4cc(C)on4)c(Cl)c3)c2cc1OC [tivozanib]	
insoluble in water	CN(C)C(=O)c1cc2cnc(Nc3ccc(N4CCNCC4)cn3)nc2n1C1CCCC1 [ribociclib]	
insoluble in water	CN1CCC(COc2cnc(-c3cccc(Cn4nc(-c5cccc(C#N)c5)ccc4=O)c3)nc2)CC1 [tepotinib]	
insoluble in water	O=C(/C=C\n1cnc(-c2cc(C(F)(F)F)cc(C(F)(F)F)c2)n1)NNc1cnccn1 [selinexor]	
water soluble	CN(C)C/C=C/C(=O)Nc1cc2c(Nc3ccc(F)c(Cl)c3)ncnc2cc1O[C@H]1CCOC1 [afatinib]	
insoluble in water	C1=C/COCc2cc(ccc2OCCN2CCCC2)Nc2nccc(n2)-c2cccc(c2)COC/1 [pacritinib]	
